Measurements as given in ChEMBL document CHEMBL3853353, “Identification and optimization of a new series of anti-tubercular quinazolinones” (Bioorg Med Chem Lett, 2016).
In brackets after ≈: the same amount, converted by molar mass. Activity calls are given as the source filed them. The rule behind the calls is not given here.

Tests used:
[1] = test system: Mycobacterium tuberculosis; assay: Antimycobacterial activity against Mycobacterium tuberculosis H37Rv infected in po dosed Balb/c mouse assessed as bacterial burden in lungs administered daily through gavage starting on day 2 post infection for 4 days per week for 2 weeks each 4 days dosing followed by 2 days compound washout measured on day 12 post infection (reference value: 8 log10CFU); assay type: functional, Lung
[2] = test system: Mycobacterium tuberculosis; assay: (§1) Antimycobacterial activity against Mycobacterium tuberculosis H37Rv infected in Balb/c mouse assessed as bacterial burden in lungs at 100 mg/kg, po administered daily through gavage for 2 weeks starting on day 2 post infection as 5% soluplus/acetate buffer formulation measured on day 12 post infection (reference value: 6.4 log10CFU); assay type: functional, Lung
[3] = test system: Mycobacterium tuberculosis; assay: as §1, with “10” for “100”; assay type: functional, Lung
[4] = AUC in Balb/c mouse lungs infected with Mycobacterium tuberculosis H37Rv at 300 mg/kg, po administered through gavage as 5% soluplus/acetate buffer formulation; assay type: ADME, organism-based; details: lung
[5] = AUC in Balb/c mouse plasma infected with Mycobacterium tuberculosis H37Rv at 300 mg/kg, po administered through gavage as 5% soluplus/acetate buffer formulation; assay type: ADME, organism-based
[6] = test system: Mycobacterium tuberculosis; assay: as §1, with “30” for “100”; assay type: functional, Lung
[7] = test system: Mycobacterium tuberculosis; assay: as §1, with “300” for “100”; assay type: functional, Lung
[8] = Time at which plasma concentration stays above invitro MIC80 in presence of mouse serum Balb/c mouse infected with Mycobacterium tuberculosis H37Rv at 300 mg/kg, po administered through gavage as 5% soluplus/acetate buffer formulation; assay type: ADME, organism-based; details: in vivo
[9] = test system: Mycobacterium tuberculosis; assay: Antimycobacterial activity against Mycobacterium tuberculosis H37Rv incubated for 5 days in presence of 25% human serum by Bactiter-Glo assay; assay type: functional; details: 120 h
[10] = test system: Mycobacterium tuberculosis; assay: Antimycobacterial activity against Mycobacterium tuberculosis H37Rv infected in po dosed Balb/c mouse assessed as log10 reduction in CFU in lungs administered daily through gavage starting on day 2 post infection for 4 days per week for 2 weeks as lipidic/water formulation measured on day 12 post infection; assay type: functional; details: read-out: MED
[11] = Aqueous equilibrium solubility of compound in pH 7.4 solution at 20 degC; details: aqueous pH 7.4 solution
[12] = test system: Mycobacterium tuberculosis; assay: (§2) Antimycobacterial activity against Mycobacterium tuberculosis H37Rv infected in Balb/c mouse assessed as bacterial burden in lungs at 100 mg/kg, po administered daily through gavage starting on day 2 post infection for 4 days per week for 2 weeks as vitamin E/water formulation measured on day 12 post infection (reference value: 7.6 log10CFU); assay type: functional, Lung
[13] = test system: Mycobacterium tuberculosis; assay: Antimycobacterial activity against GFP-tagged Mycobacterium tuberculosis H37Rv infected in mouse RAW264.7 cells incubated for 4 days by Mask blue/Hoechst/FITC staining based fluorescence microscopic analysis; assay type: functional; details: 96 h
[14] = Permeability in human Caco2 cells; details: caco-2
[15] = test system: Mycobacterium tuberculosis; assay: Antimycobacterial activity against Mycobacterium tuberculosis H37Rv incubated for 5 days by Bactiter-Glo assay; assay type: functional; details: 120 h
[16] = AUC in Balb/c mouse plasma infected with Mycobacterium tuberculosis H37Rv at 10 to 100 mg/kg, po administered through gavage as lipidic/water formulation; assay type: ADME, organism-based
[17] = Cytotoxicity against human HepG2 cells assessed as reduction in cell viability after 40 hrs by Celltiter-Glo assay
[18] = Time at which lung concentration stays above invitro MIC80 in presence of mouse serum in Balb/c mouse infected with Mycobacterium tuberculosis H37Rv at 100 mg/kg, po administered through gavage as lipidic/water formulation; assay type: ADME, organism-based; details: in vivo
[19] = test system: Mycobacterium tuberculosis; assay: as §2, with “30” for “100”; assay type: functional, Lung
[20] = test system: Mycobacterium tuberculosis; assay: Ratio of MIC80 for Mycobacterium tuberculosis H37Rv in presence of 25% human serum to MIC80 for Mycobacterium tuberculosis H37Rv; assay type: functional
Cytochrome P450 3A4 [21] = target: T1, Cytochrome P450 3A4 (Homo sapiens, UniProt P08684); assay: Inhibition of CYP3A4 in human liver microsomes assessed as 1'-hydroxymidazolam metabolite formation using midazolam as substrate incubated for 10 mins by HPLC-MS method
[22] = test system: Mycobacterium tuberculosis; assay: Antimycobacterial activity against Mycobacterium tuberculosis H37Rv incubated for 5 days in presence of 25% mouse serum by Bactiter-Glo assay; assay type: functional; details: 120 h
[23] = Time at which plasma concentration stays above invitro MIC80 in presence of mouse serum in Balb/c mouse infected with Mycobacterium tuberculosis H37Rv at 100 mg/kg, po administered through gavage as lipidic/water formulation; assay type: ADME, organism-based; details: in vivo
[24] = test system: Mycobacterium tuberculosis; assay: as §2, with “600” for “100”, “lipidic/water” for “vitamin E/water”, “7.2” for “7.6”; assay type: functional, Lung
Cytochrome P450 3A4 [25] = target: T1, Cytochrome P450 3A4; assay: Inhibition of CYP3A4 in human liver microsomes assessed as 6-beta-hydroxytestosterone metabolite formation using testosterone as substrate incubated for 30 mins by HPLC-MS method
[26] = Protein binding in human plasma at 1 to 10 uM after 4 hrs by LC-MS/MS analysis; assay type: ADME, cell-free; details: read-out: PPB (converted)
[27] = test system: Mycobacterium tuberculosis; assay: as §2, with “300” for “100”; assay type: functional, Lung
[28] = Protein binding in Swiss mouse plasma at 1 to 10 uM after 4 hrs by LC-MS/MS analysis; assay type: ADME, cell-free; details: read-out: PPB (converted)
[29] = Lipophilicity, log P of compound; details: octanol/water
[30] = Aqueous equilibrium solubility of compound in pH 1 solution at 20 degC; details: aqueous pH 1 solution
[31] = Bioavailability in Swiss mouse at 3 mg/kg, iv administered as single bolus dose in NMP/Solutol HS15/PBS solution after 24 hrs; assay type: ADME, organism-based; details: in vivo
hERG (KCNH2) = hERG (KCNH2) (Homo sapiens, UniProt Q12809); assay: Inhibition of human ERG at 10 uM relative to control
[32] = Drug metabolism in human liver microsomes assessed as CYP450/FMO-mediated demethylation of methoxy group/hydroxylation of distal aryl ring at 5 uM after 20 mins in presence of NADPH; assay type: ADME
[33] = Selectivity index, ratio of IC50 for human HepG2 cells to MIC80 for Mycobacterium tuberculosis H37Rv; assay type: toxicity, cell-based; details: read-out: Selectivity Index
[34] = test system: Mycobacterium tuberculosis; assay: Bacteriostatic activity against Mycobacterium tuberculosis H37Rv incubated for 5 days by Bactiter-Glo assay; assay type: functional
[35] = Drug metabolism in human hepatocytes assessed as demethylation of methoxy group/hydroxylation of distal aryl ring; assay type: ADME, cell-based, Hepatocyte
[36] = test system: Mycobacterium tuberculosis; assay: Growth inhibition of Mycobacterium tuberculosis H37Rv at 10 uM incubated for 5 days by Bactiter-Glo assay relative to control; assay type: functional; details: 120 h, read-out: GI
Salmonella typhimurium = assay: Genotoxicity in Salmonella typhimurium by Ames test; assay type: toxicity, organism-based; details: salmonella enterica subsp. enterica serovar typhimurium
Mus musculus = assay: Toxicity in Balb/c mouse infected with Mycobacterium tuberculosis H37Rv at 300 mg/kg, po administered through gavage as single dose; assay type: organism-based; details: in vivo
[37] = Ratio of drug level in Mycobacterium tuberculosis H37Rv infected Balb/c mouse lung to plasma at 100 mg/kg, po administered through gavage as VitE/PEG200/HPC formulation; details: other tissue
[38] = test system: Mycobacterium tuberculosis; assay: as §2, with “10” for “100”, “VitE/PEG200/HPC” for “vitamin E/water”, “7.8” for “7.6”; assay type: functional, Lung
[39] = test system: Mycobacterium tuberculosis; assay: as §2, with “30” for “100”, “VitE/PEG200/HPC” for “vitamin E/water”, “7.8” for “7.6”; assay type: functional, Lung
[40] = AUC in Balb/c mouse plasma infected with Mycobacterium tuberculosis H37Rv at 100 mg/kg, po administered through gavage as VitE/PEG200/HPC formulation; assay type: ADME, organism-based
[41] = Half life in Balb/c mouse infected with Mycobacterium tuberculosis H37Rv at 100 mg/kg, po administered through gavage as VitE/PEG200/HPC formulation; assay type: ADME, organism-based; details: in vivo
[42] = test system: Mycobacterium tuberculosis; assay: as §2, with “VitE/PEG200/HPC” for “vitamin E/water”, “7.8” for “7.6”; assay type: functional, Lung
[43] = test system: Mycobacterium tuberculosis; assay: Antimycobacterial activity against Mycobacterium tuberculosis H37Rv infected in Balb/c mouse assessed as bacterial burden in lungs at 10 mg/kg, po administered daily through gavage for 2 weeks starting on day 2 post infection measured on day 12 post infection (reference value: 6.4 log10CFU); assay type: functional, Lung
[44] = test system: Mycobacterium tuberculosis; assay: Antimycobacterial activity against Mycobacterium tuberculosis H37Rv infected in Balb/c mouse assessed as bacterial burden in lungs at 10 mg/kg, po administered daily through gavage starting on day 2 post infection for 4 days per week for 2 weeks measured on day 12 post infection (reference value: 7.8 log10CFU); assay type: functional, Lung

T1 sequence (P08684 whole entry): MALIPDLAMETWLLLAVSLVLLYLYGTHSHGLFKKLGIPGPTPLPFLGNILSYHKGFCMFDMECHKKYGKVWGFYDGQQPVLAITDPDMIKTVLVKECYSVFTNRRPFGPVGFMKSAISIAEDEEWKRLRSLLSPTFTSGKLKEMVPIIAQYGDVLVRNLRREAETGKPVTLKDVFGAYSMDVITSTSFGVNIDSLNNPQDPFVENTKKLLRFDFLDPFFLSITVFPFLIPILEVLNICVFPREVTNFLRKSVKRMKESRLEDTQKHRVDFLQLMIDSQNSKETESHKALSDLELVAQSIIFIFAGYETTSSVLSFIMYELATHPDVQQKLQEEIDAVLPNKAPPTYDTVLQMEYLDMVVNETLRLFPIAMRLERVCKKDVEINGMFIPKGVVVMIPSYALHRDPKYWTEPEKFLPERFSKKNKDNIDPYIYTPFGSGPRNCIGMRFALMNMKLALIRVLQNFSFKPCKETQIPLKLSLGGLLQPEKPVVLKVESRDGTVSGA
Chain of hERG (KCNH2) (Q12809 whole entry): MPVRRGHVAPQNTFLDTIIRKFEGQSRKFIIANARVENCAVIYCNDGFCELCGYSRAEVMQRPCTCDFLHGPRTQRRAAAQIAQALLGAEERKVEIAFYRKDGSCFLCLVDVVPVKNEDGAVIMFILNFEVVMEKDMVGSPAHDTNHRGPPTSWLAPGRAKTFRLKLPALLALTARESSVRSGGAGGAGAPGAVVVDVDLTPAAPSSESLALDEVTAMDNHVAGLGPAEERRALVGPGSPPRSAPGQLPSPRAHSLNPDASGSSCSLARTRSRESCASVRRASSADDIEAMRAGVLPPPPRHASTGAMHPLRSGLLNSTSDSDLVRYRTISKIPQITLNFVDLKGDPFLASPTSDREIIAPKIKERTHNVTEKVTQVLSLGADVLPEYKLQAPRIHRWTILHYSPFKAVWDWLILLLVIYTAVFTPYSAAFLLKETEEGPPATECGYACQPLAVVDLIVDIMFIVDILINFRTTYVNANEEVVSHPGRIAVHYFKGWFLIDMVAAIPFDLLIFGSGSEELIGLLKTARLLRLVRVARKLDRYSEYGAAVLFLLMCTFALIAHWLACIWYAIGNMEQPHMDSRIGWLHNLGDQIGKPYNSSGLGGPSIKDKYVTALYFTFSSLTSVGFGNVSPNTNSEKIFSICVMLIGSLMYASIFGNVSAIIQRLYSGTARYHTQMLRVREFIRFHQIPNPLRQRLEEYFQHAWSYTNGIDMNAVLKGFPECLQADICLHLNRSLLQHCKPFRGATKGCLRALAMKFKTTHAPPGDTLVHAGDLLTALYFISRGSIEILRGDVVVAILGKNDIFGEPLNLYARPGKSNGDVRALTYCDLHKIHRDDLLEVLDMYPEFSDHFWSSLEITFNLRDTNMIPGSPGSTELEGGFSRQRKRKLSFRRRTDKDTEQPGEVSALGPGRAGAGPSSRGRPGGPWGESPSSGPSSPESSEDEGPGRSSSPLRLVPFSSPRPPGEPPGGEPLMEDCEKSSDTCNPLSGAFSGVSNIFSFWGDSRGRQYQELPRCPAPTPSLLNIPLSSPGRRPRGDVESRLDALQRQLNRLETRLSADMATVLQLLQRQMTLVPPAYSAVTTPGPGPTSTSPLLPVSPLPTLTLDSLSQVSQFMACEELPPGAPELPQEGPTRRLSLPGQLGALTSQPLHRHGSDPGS

CC[C@@H](CO)NCCN[C@@H](CC)CO [ETHAMBUTOL]
Activity [1]: 7 log10CFU

Cn1c(NCCc2ccc(-c3ccc(F)cc3)cc2)nc2cc(Cl)ccc2c1=O.O=S(=O)(O)O
Activity [2]: 5.5 log10CFU | Activity [3]: 6.6 log10CFU | AUC [4]: 980000 ng·h/mL | AUC [5]: 140000 ng·h/mL | Activity [6]: 5.8 log10CFU | Activity [7]: 4.9 log10CFU | Time [8]: > 24 h

Cn1c(NCCc2ccc(Oc3ccc(Cl)cc3)cc2)nc2cc(Cl)ccc2c1=O
MIC80 [9]: 1.9 µM | minimal effective dose [10]: 600 mg/kg | solubility thermodynamic [11]: < 1 µg/mL | Activity [12]: 7.1 log10CFU | MIC80 [13]: 0.133 µM (≈ 0.0586 µg/mL) | permeability [14]: Permeable | MIC80 [15]: 0.036 µM (≈ 0.0159 µg/mL) | AUC [16]: 21000 ng·h/mL | IC50 at 40 h ([17]; HepG2 cells): 10.9 µM | Time [18]: > 96 h | Activity [19]: 7.5 log10CFU | Ratio [20]: 8 | IC50 (Cytochrome P450 3A4 [21]): 14 µM | MIC80 [22]: 0.42 µM | Time [23]: > 96 h | Activity [24]: 6.3 log10CFU | IC50 (Cytochrome P450 3A4 [25]): 29 µM | fraction unbound at 4 h [26]: 0.001 | Activity [27]: 7 log10CFU | fraction unbound at 4 h [28]: 0.001 | logP [29]: 5.66 | solubility thermodynamic [30]: < 1 µg/mL | bioavailability [31]: 90%

COc1ccc(CCNc2nc3cc(Cl)ccc3c(=O)n2C)cc1
inhibition at 10 µM (hERG (KCNH2)): 35% | Drug metabolism [32]: Metabolite_Detected | MIC80 [9]: 0.43 µM | solubility thermodynamic [11]: ≤ 1 µg/mL | MIC80 [13]: 0.163 µM (≈ 0.056 µg/mL) | permeability [14]: Permeable | MIC80 [15]: 0.038 µM (≈ 0.0131 µg/mL) | IC50 at 40 h ([17]; HepG2 cells): 13.4 µM | selectivity ratio [33]: > 10 | Activity [34]: Active | Drug metabolism [35]: Metabolite_Detected | Ratio [20]: >10 | IC50 (Cytochrome P450 3A4 [21]): < 1 µM | inhibition of growth at 10 µM [36]: > 50% | Activity (Salmonella typhimurium): Non-Toxic | MIC80 [22]: 0.013 µM | IC50 (Cytochrome P450 3A4 [25]): 4.3 µM | logP [29]: 4.08 | solubility thermodynamic [30]: 11 µg/mL (≈ 32 µM)

Cn1c(NCCc2ccc(-c3ccc(F)cc3)cc2)nc2cc(N)ccc2c1=O
Activity (Mus musculus): Toxic | MIC80 [9]: 0.01 µM | MIC80 [13]: 0.06 µM (≈ 0.0233 µg/mL) | Kp [37]: 4.5 | Activity [38]: 7.4 | MIC80 [15]: 0.01 µM (≈ 0.00388 µg/mL) | Activity [39]: 7.1 | IC50 at 40 h ([17]; hepg2): > 30 µM | MIC80 [22]: 0.007 µM | fraction unbound at 4 h [26]: 0.002 | AUC [40]: 29000 ng·h/mL | fraction unbound at 4 h [28]: 0.002 | half-life [41]: 6 h | Activity [42]: 7

CO[C@H]1/C=C/O[C@@]2(C)Oc3c(C)c(O)c4c(O)c(c(/C=N/N5CCN(C)CC5)c(O)c4c3C2=O)NC(=O)/C(C)=C\C=C\[C@H](C)[C@H](O)[C@@H](C)[C@@H](O)[C@@H](C)[C@H](OC(C)=O)[C@@H]1C [RIFAMPIN]
Activity [43]: 3.9 log10CFU | Activity [44]: 5.2
